Test results as given in US8017769B2, “Colorless water-soluble organic luminophores and intermediates thereof” (priority 2005, dated 2011).

Assays:
[1] = result in words
[2] = colourless aqueous solution

Row | solubility in water [1] | fluorescence wavelength maximum [2] | Compound
1 | highly soluble in water | 565 nm | O=S(=O)([O-])c1cccc(Nc2nc(Nc3ccc(S(=O)(=O)[O-])cc3-c3nc4ccccc4s3)nc(N3CCOCC3)n2)c1.[Na+].[Na+] [Compound IX, Disodium salt of 4-[4-(3-sulfophenylamino)-6-morpholino-1,3,5-triazin-2-ylamino]-3-(benzo[d]thiazol-2-yl)benzenesulfonic acid]
2 | highly soluble in water | 550 nm | O=S(=O)([O-])c1cccc(Nc2nc(Cl)nc(Nc3ccc(S(=O)(=O)[O-])cc3-c3nc4ccccc4s3)n2)c1.[Na+].[Na+] [Compound III, Disodium salt of 4-[4-Chloro-6-(3-sulfophenylamino)-1,3,5-triazin-2-ylamino]-3-(benzo[d]thiazol-2-yl)benzenesulfonic acid]
3 | highly soluble in water | 517 mm | N.N.N.O=C(O)CN(CC(=O)O)c1nc(Cl)nc(Nc2ccc(S(=O)(=O)O)cc2-c2nc3ccccc3o2)n1 [Compound XIV, Triammonium salt of 4-{4-chloro-6-[di(carboxymethyl)amino]-1,3,5-triazin-2-ylamino}-3-(benzo[d]oxazol-2-yl)benzenesulfonic acid]
4 | not soluble in water | – | O=S(=O)([O-])c1ccc(Nc2nc(Cl)nc(Cl)n2)c(-c2nc3ccccc3s2)c1.[Na+] [Compound II, Sodium salt of 4-(4,6-dichloro-1,3,5-triazin-2-ylamino)-3-(benzo[d]thiazol-2-yl)benzenesulfonic acid]
5 | highly soluble in water | 570 nm | O=C([O-])CN(CC(=O)[O-])c1nc(Nc2ccc(S(=O)(=O)[O-])cc2-c2nc3ccccc3s2)nc(N(CC(=O)[O-])CC(=O)[O-])n1.[K+].[K+].[K+].[K+].[K+] [Compound IV, Pentapotassium salt of 4-{4,6-bis-[di(carboxymethyl)amino]-1,3,5-triazin-2-ylamino}-3-(benzo[d]thiazol-2-yl)benzenesulfonic acid]
6 | highly soluble in water | 582 nm | O=S(=O)([O-])c1ccc(Nc2nc(Nc3ccc(S(=O)(=O)[O-])cc3-c3nc4ccccc4s3)nc(N3CCOCC3)n2)c(-c2nc3ccccc3s2)c1.[Na+].[Na+] [Compound VI, Disodium salt of 4-{4-[2-(benzo[d]thiazol-2-yl)-4-sulfophenylamino]-6-morpholino-1,3,5-triazin-2-ylamino}-3-(benzo[d]thiazol-2-yl)benzenesulfonic acid]
7 | highly soluble in water | 565 nm | O=C([O-])CNc1nc(NCC(=O)[O-])nc(Nc2ccc(S(=O)(=O)[O-])cc2-c2nc3ccccc3s2)n1.[Na+].[Na+].[Na+] [Compound X, Trisodium salt of 4-[4,6-bis(carboxymethylamino)-1,3,5-triazin-2-ylamino]-3-(benzo[d]thiazol-2-yl)benzenesulfonic acid]
8 | highly soluble in water | 548 nm | O=C([O-])CNc1nc(Cl)nc(Nc2ccc(S(=O)(=O)[O-])cc2-c2nc3ccccc3s2)n1.[Na+].[Na+] [Compound VIII, Disodium salt of 4-(4-carboxymethylamino-6-chloro-1,3,5-triazin-2-ylamino)-3-(benzo[d]thiazol-2-yl)benzenesulfonic acid]
9 | highly soluble in water | 517 nm | O=S(=O)([O-])c1cccc(Nc2nc(Cl)nc(Nc3ccc(S(=O)(=O)[O-])cc3-c3nc4ccccc4o3)n2)c1.[Na+].[Na+] [Compound XIII, Disodium salt of 4-[4-chloro-6-(3-sulfophenylamino)-1,3,5-triazin-2-ylamino]-3-(benzo[d]oxazol-2-yl)benzenesulfonic acid]
10 | highly soluble in water | 547 nm | O=C(Nc1ccc(S(=O)(=O)[O-])cc1-c1nc2ccccc2s1)c1ccccc1S(=O)(=O)[O-].[Na+].[Na+] [Compound VII, Disodium salt of 4-(2-sulfobenzoylamino)-3-(benzoldlthiazol-2-yl)benzenesulfonic acid]

Row | Compound | solubility in water [1] | fluorescence wavelength maximum [2]
11 | O=S(=O)([O-])c1ccc(Nc2nc(Cl)nc(Nc3ccc(S(=O)(=O)[O-])cc3-c3nc4ccccc4s3)n2)c(-c2nc3ccccc3s2)c1.[Na+].[Na+] [Compound V, Disodium salt of 4-{4-[2-(benzo[d]thiazol-2-yl)-4-sulfophenylamino]-6-chloro-1,3,5-triazin-2-ylamino}-3-(benzo[d]thiazol-2-yl)benzenesulfonic acid] | poorly soluble in water | –
